From US8280710B2, “Method for determining thermal stability of collagen or collagen-like peptide” (University of Medicine and Dentistry of New Jersey, priority 2005, dated 2012)
Non-standard residues stand in square brackets, D forms with d. Residues, ends and D or L forms follow the SMILES beside them. Hyp = O=C(O)[C@@H]1C[C@@H](O)CN1

Columns and labels:
[1] = Method for predicting global Tm of collagen peptides from amino acid sequence; settings: observed minus predicted, peptides of Table 3
Method: The global thermal stability of homotrimeric triple helical peptides with length of at least 6 tripeptide units and, in most cases, containing 10 tripeptide units was determined as follows.
For the total number of triplets n in a given peptide, the base Tm^0(n) for (Pro-Hyp-Gly) or (Pro-Pro-Gly)n was calculated from the length dependence (Equation 1), including any effect of blocking groups;
The melting temperature value was decreased for every triplet in the sequence that was not Gly-Pro-Hyp, subtracting a value of ΔTm^GXY (Table 1). The N-terminal and C-terminal tripeptide units were excluded from the calculation due to the staggering of the chains and the disorder for the peptide ends (Bella et al. (1994) supra; Li, et al. (1993) Biochemistry 32:7377-7387; Kramer, et al. (2001) J. Mol. Biol. 301:1191-1205).
The resulting value for the peptide melting temperature was adjusted using the ΔTm^int values for interactions between neighboring tripeptides (Table 2).
The method was formulated as follows.
To extrapolate the dependence of the Tm of the host peptides on peptide length, the experimental values for (Pro-Hyp-Gly)n and (Pro-Pro-Gly)n versus n, where n is the number of tripeptide units, were fit to the exponential decay function
[formula] where Tm^0(n) is defined as the base thermal stability of the repeating polytripeptide standard, Tm^max is the maximum melting temperature, and the constant n0 represents the length of the repeating peptide with Tm=0.

[2] = peptide of Table 3, defined standard conditions
Method: The propensity measurements for all 20 amino acid residues in the Xaa1 position in a Gly-Xaa1-Hyp context and all 20 amino acid residues in the Xaa2 position in a Gly-Pro-Xaa2 context were determined by measuring thermal stability of host-guest peptides (Persikov, et al. (2000) supra).
The Tm values of all host-guest peptides were measured under a set of standard conditions, with c=1 mg/ml in phosphate-buffered saline, pH 7.0, and with a heating rate average of 0.1° C./minute (Persikov, et al. (2004) supra).

## CC(=O)NCC(=O)N1CCC[C@H]1C(=O)N1C[C@H](O)C[C@H]1C(=O)NCC(=O)N1CCC[C@H]1C(=O)N1C[C@H](O)C[C@H]1C(=O)NCC(=O)N[C@@H](CCCNC(=N)N)C(=O)N1C[C@H](O)C[C@H]1C(=O)NCC(=O)N[C@@H](CCCCN)C(=O)N[C@@H](CCCNC(=N)N)C(=O)NCC(=O)N[C@@H](CCCCN)C(=O)N[C@@H](CCC(N)=O)C(=O)NCC(=O)N[C@@H](CCC(N)=O)C(=O)N[C@@H](CCCCN)C(=O)NCC(=O)N1CCC[C@H]1C(=O)N1C[C@H](O)C[C@H]1C(=O)NCC(=O)N1CCC[C@H]1C(=O)N1C[C@H](O)C[C@H]1C(=O)NCC(=O)N1CCC[C@H]1C(=O)N1C[C@H](O)C[C@H]1C(=O)NCC(=O)N1CCC[C@H]1C(=O)N1C[C@H](O)C[C@H]1C(=O)NCC(N)=O [AchE-P231 (r), Ac-GPO-GPO-GRO-GKR-GKQ-GQK-(GPO)4-G-NH2] (Ac-GP[Hyp]GP[Hyp]GR[Hyp]GKRGKQGQKGP[Hyp]GP[Hyp]GP[Hyp]GP[Hyp]G-NH2)
[1]
  ΔTm: −1.9 °C
[2]
  Tm^obs: 23.9 °C

## CC(=O)NCC(=O)N1CCC[C@H]1C(=O)N1C[C@H](O)C[C@H]1C(=O)NCC(=O)N[C@@H](CCCNC(=N)N)C(=O)N1C[C@H](O)C[C@H]1C(=O)NCC(=O)N[C@@H](CCCNC(=N)N)C(=O)N[C@@H](CCCNC(=N)N)C(=O)NCC(=O)N[C@@H](CCCNC(=N)N)C(=O)N1C[C@H](O)C[C@H]1C(=O)NCC(=O)N[C@@H](CC(C)C)C(=O)N[C@@H](CCCCN)C(=O)NCC(=O)N[C@@H](CCC(=O)O)C(=O)N[C@@H](CCC(N)=O)C(=O)NCC(=O)N1CCC[C@H]1C(=O)N1C[C@H](O)C[C@H]1C(=O)NCC(=O)N1CCC[C@H]1C(=O)N1C[C@H](O)C[C@H]1C(=O)NCC(=O)N1CCC[C@H]1C(=O)N1C[C@H](O)C[C@H]1C(=O)NCC(=O)N1CCC[C@H]1C(=O)N1C[C@H](O)C[C@H]1C(=O)NCC(=O)N[C@@H](Cc1ccc(O)cc1)C(N)=O [C1qA-15, Ac-GPO-GRO-GRR-GRO-GLK-GEQ-(GPO)4-GY-NH2] (Ac-GP[Hyp]GR[Hyp]GRRGR[Hyp]GLKGEQGP[Hyp]GP[Hyp]GP[Hyp]GP[Hyp]GY-NH2)
[1]
  ΔTm: −7.4 °C
[2]
  Tm^obs: 23.3 °C

## CC[C@H](C)[C@H](NC(=O)CNC(=O)[C@@H]1C[C@@H](O)CN1C(=O)[C@@H]1CCCN1C(=O)CNC(C)=O)C(=O)N[C@@H](CCCNC(=N)N)C(=O)NCC(=O)N1CCC[C@H]1C(=O)N[C@@H](CCCCN)C(=O)NCC(=O)N[C@@H](CCC(N)=O)C(=O)N[C@@H](CCCCN)C(=O)NCC(=O)N[C@@H](CCC(=O)O)C(=O)N1C[C@H](O)C[C@H]1C(=O)NCC(=O)N[C@@H](CC(C)C)C(=O)N1C[C@H](O)C[C@H]1C(=O)NCC(=O)N1CCC[C@H]1C(=O)N1C[C@H](O)C[C@H]1C(=O)NCC(=O)N1CCC[C@H]1C(=O)N1C[C@H](O)C[C@H]1C(=O)NCC(=O)N1CCC[C@H]1C(=O)N1C[C@H](O)C[C@H]1C(=O)NCC(=O)N1CCC[C@H]1C(=O)N1C[C@H](O)C[C@H]1C(=O)NCC(=O)N[C@@H](Cc1ccc(O)cc1)C(N)=O [C1qC-67, Ac-GPO-GIR-GPK-GQK-GEO-GLO-(GPO)4-GY-NH2] (Ac-GP[Hyp]GIRGPKGQKGE[Hyp]GL[Hyp]GP[Hyp]GP[Hyp]GP[Hyp]GP[Hyp]GY-NH2)
[1]
  ΔTm: −1.4 °C
[2]
  Tm^obs: 28.4 °C

## CC[C@H](C)[C@H](NC(=O)CNC(C)=O)C(=O)N[C@@H](CC(N)=O)C(=O)NCC(=O)N[C@@H](Cc1ccccc1)C(=O)N1C[C@H](O)C[C@H]1C(=O)NCC(=O)N[C@@H](CCCCN)C(=O)N[C@@H](CC(=O)O)C(=O)NCC(=O)N[C@@H](CCCNC(=N)N)C(=O)N[C@@H](CC(=O)O)C(=O)NCC(=O)N[C@H](C(=O)N[C@@H](CCCCN)C(=O)NCC(=O)N[C@@H](CCC(=O)O)C(=O)N[C@@H](CCCCN)C(=O)NCC(=O)N[C@@H](CCC(=O)O)C(=O)N1C[C@H](O)C[C@H]1C(=O)NCC(=O)N1CCC[C@H]1C(=O)N1C[C@H](O)C[C@H]1C(=O)NCC(=O)N1CCC[C@H]1C(=O)N1C[C@H](O)C[C@H]1C(=O)NCC(=O)N1CCC[C@H]1C(=O)N1C[C@H](O)C[C@H]1C(=O)NCC(=O)N1CCC[C@H]1C(=O)N1C[C@H](O)C[C@H]1C(=O)NCC(=O)NCC(N)=O)[C@@H](C)O [MBL 42-61, Ac-GIN-GFO-GKD-GRD-GTK-GEK-GEO-(GPO)4-GG-NH2] (Ac-GINGF[Hyp]GKDGRDGTKGEKGE[Hyp]GP[Hyp]GP[Hyp]GP[Hyp]GP[Hyp]GG-NH2)
[1]
  ΔTm: −2.2 °C
[2]
  Tm^obs: 23.0 °C

## CC(=O)NCC(=O)N1CCC[C@H]1C(=O)N1C[C@H](O)C[C@H]1C(=O)NCC(=O)N1CCC[C@H]1C(=O)N1C[C@H](O)C[C@H]1C(=O)NCC(=O)N1CCC[C@H]1C(=O)N1C[C@H](O)C[C@H]1C(=O)NCC(=O)N[C@@H](C)C(=O)N[C@@H](CCCCN)C(=O)NCC(=O)N[C@@H](CC(=O)O)C(=O)N[C@@H](C)C(=O)NCC(=O)N1CCC[C@H]1C(=O)N1C[C@H](O)C[C@H]1C(=O)NCC(=O)N1CCC[C@H]1C(=O)N[C@@H](C)C(=O)NCC(=O)N1CCC[C@H]1C(=O)N1C[C@H](O)C[C@H]1C(=O)NCC(=O)N1CCC[C@H]1C(=O)N1C[C@H](O)C[C@H]1C(=O)NCC(=O)N1CCC[C@H]1C(=O)N1C[C@H](O)C[C@H]1C(=O)NCC(=O)N[C@@H](Cc1ccc(O)cc1)C(N)=O [T1-655, Ac-(GPO)3-GAK-GDA-GPO-GPA-(GPO)3-GY-NH2] (Ac-GP[Hyp]GP[Hyp]GP[Hyp]GAKGDAGP[Hyp]GPAGP[Hyp]GP[Hyp]GP[Hyp]GY-NH2)
[1]
  ΔTm: 0.1 °C
[2]
  Tm^obs: 42.8 °C

## CC(=O)NCC(=O)N1CCC[C@H]1C(=O)N[C@@H](C)C(=O)NCC(=O)N1CCC[C@H]1C(=O)N[C@@H](C)C(=O)NCC(=O)N1CCC[C@H]1C(=O)N[C@H](C(=O)NCC(=O)N1CCC[C@H]1C(=O)N[C@@H](C)C(=O)NCC(=O)N[C@@H](C)C(=O)N[C@@H](CCCNC(=N)N)C(=O)NCC(=O)N1CCC[C@H]1C(=O)N[C@@H](C)C(=O)NCC(=O)N1CCC[C@H]1C(=O)N1C[C@H](O)C[C@H]1C(=O)NCC(=O)N1CCC[C@H]1C(=O)N[C@@H](C)C(=O)NCC(=O)N1CCC[C@H]1C(=O)N1C[C@H](O)C[C@H]1C(=O)NCC(=O)N1CCC[C@H]1C(=O)N1C[C@H](O)C[C@H]1C(=O)NCC(=O)N[C@H](C(N)=O)C(C)C)C(C)C [T1-892 (O24A), Ac-(GPA)2-GPV-GPA-GAR-GPA-GPO-GPA-(GPO)2-GV-NH2] (Ac-GPAGPAGPVGPAGARGPAGP[Hyp]GPAGP[Hyp]GP[Hyp]GV-NH2)
[1]
  ΔTm: 1.4 °C
[2]
  Tm^obs: 23.2 °C

## CC(=O)NCC(=O)N1CCC[C@H]1C(=O)N[C@@H](C)C(=O)NCC(=O)N1CCC[C@H]1C(=O)N[C@@H](C)C(=O)NCC(=O)N1CCC[C@H]1C(=O)N[C@H](C(=O)NCC(=O)N1CCC[C@H]1C(=O)N[C@@H](C)C(=O)NCC(=O)N[C@@H](C)C(=O)N[C@@H](CCCNC(=N)N)C(=O)NCC(=O)N1CCC[C@H]1C(=O)N[C@@H](C)C(=O)NCC(=O)N1CCC[C@H]1C(=O)N1C[C@H](O)C[C@H]1C(=O)NCC(=O)N1CCC[C@H]1C(=O)N1C[C@H](O)C[C@H]1C(=O)NCC(=O)N[C@@H](C)C(=O)N1C[C@H](O)C[C@H]1C(=O)NCC(=O)N1CCC[C@H]1C(=O)N1C[C@H](O)C[C@H]1C(=O)NCC(=O)N[C@H](C(N)=O)C(C)C)C(C)C [T1-892 (P26A), Ac-(GPA)2-GPV-GPA-GAR-GPA-(GPO)2-GAO-GPO-GV-NH2] (Ac-GPAGPAGPVGPAGARGPAGP[Hyp]GP[Hyp]GA[Hyp]GP[Hyp]GV-NH2)
[1]
  ΔTm: 1.5 °C
[2]
  Tm^obs: 24.1 °C

## CC(C)[C@H](NC(=O)[C@@H]1CCCN1C(=O)CNC(=O)[C@H](C)NC(=O)[C@@H]1CCCN1C(=O)CNC(=O)[C@H](C)NC(=O)[C@@H]1CCCN1C(=O)CN)C(=O)NCC(=O)N1CCC[C@H]1C(=O)N[C@@H](C)C(=O)NCC(=O)N[C@@H](C)C(=O)N[C@@H](CCCNC(=N)N)C(=O)NCC(=O)N1CCC[C@H]1C(=O)N[C@@H](C)C(=O)NCC(=O)N1CCC[C@H]1C(=O)N1C[C@H](O)C[C@H]1C(=O)NCC(=O)N1CCC[C@H]1C(=O)N1C[C@H](O)C[C@H]1C(=O)NCC(=O)N1CCC[C@H]1C(=O)N1C[C@H](O)C[C@H]1C(=O)NCC(=O)N1CCC[C@H]1C(=O)N1C[C@H](O)C[C@H]1C(=O)NCC(=O)N[C@@H](Cc1ccc(O)cc1)C(=O)O [T1-892 unbl, GPA-GPA-GPV-GPA-GAR-GPA-(GPO)4-GY] (H-GPAGPAGPVGPAGARGPAGP[Hyp]GP[Hyp]GP[Hyp]GP[Hyp]GY-OH)
[1]
  ΔTm: −3.2 °C
[2]
  Tm^obs: 20.6 °C

## CC(=O)NCC(=O)N1CCC[C@H]1C(=O)N[C@@H](C)C(=O)NCC(=O)N1CCC[C@H]1C(=O)N[C@@H](C)C(=O)NCC(=O)N1CCC[C@H]1C(=O)N[C@H](C(=O)NCC(=O)N1CCC[C@H]1C(=O)N[C@@H](C)C(=O)NCC(=O)N[C@@H](C)C(=O)N[C@@H](CCCNC(=N)N)C(=O)NCC(=O)N1CCC[C@H]1C(=O)N[C@@H](C)C(=O)NCC(=O)N1CCC[C@H]1C(=O)N1C[C@H](O)C[C@H]1C(=O)NCC(=O)N1CCC[C@H]1C(=O)N1C[C@H](O)C[C@H]1C(=O)NCC(=O)N1CCC[C@H]1C(=O)N1C[C@H](O)C[C@H]1C(=O)NCC(=O)N1CCC[C@H]1C(=O)N1C[C@H](O)C[C@H]1C(=O)NCC(=O)N[C@H](C(N)=O)C(C)C)C(C)C [T1-892, Ac-GPA-GPA-GPV-GPA-GAR-GPA-(GPO)4-GV-NH2] (Ac-GPAGPAGPVGPAGARGPAGP[Hyp]GP[Hyp]GP[Hyp]GP[Hyp]GV-NH2)
[1]
  ΔTm: −2.2 °C
[2]
  Tm^obs: 26.0 °C
